In one series the target is T1, PDE7A (Homo sapiens, UniProt Q13946).
T1 construct: purchased BPS Bioscience 60373
The series can be described thus: In vitro PDE7A inhibitory activity assay (fluorescence polarization PDE7A Assay Kit, BPS Bioscience). It is filed as biochemical. The note with it: for IC50: fluorescence polarization kit. How it is done: The inhibitory activity of the compounds was determined as half maximal inhibitory concentration IC50 in μM ([Malik et al., 2008]; [Pekkinen et al., 2008]).
All the newly synthesized compounds 4a-h and 5a-h were evaluated for in vitro PDE7A inhibitory activity using a fluorescence polarization PDE7A Assay Kit (Catalog no. 60373; BPS Bioscience) ([Malik et al., 2008]; [Pekkinen et al., 2008]). The assay is based on the binding of fluorescent nucleotide, a monophosphate generated by PDE7A to the binding agent. PDE7A catalyzes the hydrolysis of the phosphodiester bond in dye-labeled cyclic adenosine monophosphate (cAMP). Nanoparticle beads selectively bind the phosphate group in the nucleotide product. This increases the size of the nucleotide relative to unreacted cAMP. Since the degree of polarization of a fluorophore is inversely related to its molecular rotation, dyes attached to the slowly rotating nucleotide-bead complexes will not have time to reorient and therefore will emit highly polarized light. Conversely, dyes attached to the rapidly rotating cyclic monophosphates will obtain random orientations and emit light with low polarization.
The PDE7A inhibitor screening assay kit comes in a convenient 384-well format, including purified PDE7A enzyme, fluorescently labeled PDE7A substrate (cAMP), binding agent, and PDE assay buffer for 384 enzyme reactions. The key to the PDE7A Assay Kit is the specific binding agent. Using this kit, only two simple steps on a microtiter plate are required for PDE7A reactions. First, the fluorescently labeled cAMP is incubated with a sample containing PDE7A for 1 h. Second, a binding agent is added to the reaction mix to produce a change in fluorescent polarization that can then be measured using a fluorescence reader. The microtiter plate reader is capable of excitation at wavelengths ranging from 485 ± 15 nm and detection of emitted light ranging from 528 ± 10 nm. […] The inhibitory activity of the tested compounds was determined as half maximal inhibitory concentration IC50 in μM compared to the two reference standards.
This in vitro testing assay was carried out at the confirmatory diagnostic unit, Vacsera, Egypt, and the results are presented in Table 1 and represented in Figure 2. […] Halogen atoms are lipophilic substituents commonly used in the design of novel biologically active molecules.
(Polarisation of emitted light reports the rotation of a fluorescent probe.)

In a further series the test system is PDE7. The note with it: cited from earlier work.

Entries after “also recorded” stand apart in the source; their conditions may differ. Like-named read-outs stand apart in the source and are kept apart here.

This is an account of results in PMC11070508, “Design, synthesis, molecular docking, and molecular dynamic studies of novel quinazoline derivatives as phosphodiesterase 7 inhibitors” (Frontiers in Pharmacology, 2024).

T1 sequence (Q13946 whole entry): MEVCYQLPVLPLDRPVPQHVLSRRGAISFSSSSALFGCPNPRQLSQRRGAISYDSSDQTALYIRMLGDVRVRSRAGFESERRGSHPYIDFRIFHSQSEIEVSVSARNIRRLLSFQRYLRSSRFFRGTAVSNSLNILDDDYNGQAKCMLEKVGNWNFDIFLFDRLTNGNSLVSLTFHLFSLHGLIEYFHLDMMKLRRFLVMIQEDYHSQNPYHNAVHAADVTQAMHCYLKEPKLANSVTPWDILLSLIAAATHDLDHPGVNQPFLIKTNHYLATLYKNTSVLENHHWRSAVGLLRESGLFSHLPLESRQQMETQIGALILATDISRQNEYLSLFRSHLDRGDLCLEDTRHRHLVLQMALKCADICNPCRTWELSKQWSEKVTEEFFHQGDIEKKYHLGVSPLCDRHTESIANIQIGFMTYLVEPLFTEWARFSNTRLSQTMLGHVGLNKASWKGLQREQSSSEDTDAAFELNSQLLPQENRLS

Turning to `Clc1ccc2nc(Cl)n3c(-c4c[nH]c5ccc(Br)cc45)nnc3c2c1` [Compound 5g, 3-(5-Bromo-3-indolyl)-5,9-dichloro-1,2,4-triazolo[4,3-c]quinazoline], the melting point (commonly the temperature, or range, at which the solid turns liquid) was greater than 280 °C. At PDE7A, the “PDE7A inhibitory activity (result in words)” value (“PDE7A inhibitory activity” for short) is given as “good activity” and 0.407 µM corresponded to half-maximal inhibition (IC50).

`Clc1nc2ccccc2c2nnc(-c3ccnc4ccccc34)n12` [Compound 5d, 5-Chloro-3-(4-quinolinyl)-1,2,4-triazolo[4,3-c]quinazoline] had a melting point of 220 to 222 °C. Besides, at PDE7A, the “PDE7A inhibitory activity” value was “very low PDE7 inhibitory effect” and half-maximal inhibition (IC50) required 0.894 µM.

As for `OCc1ccc(-c2nnc3c4cc(Cl)ccc4nc(Cl)n23)o1` [Compound 5e, 5,9-Dichloro-3-(5-hydroxymethyl-2-furyl)-1,2,4-triazolo[4,3-c]quinazoline], the melting point is less than 280 °C. Besides, at PDE7A, the “PDE7A inhibitory activity” value is “among the least effective compounds” and it took 1.34 µM to reach half-maximal inhibition (IC50).

In turn, `Clc1ccc2nc(Cl)nc(NN=Cc3ccnc4ccccc34)c2c1` [Compound 4h, 2,6-Dichloro-4-[2-(4-quinolinylmethylene)hydrazino]quinazoline] yielded a melting point of less than 280 °C. For the same molecule, at PDE7A, the “PDE7A inhibitory activity” value is on record as “very low PDE7 inhibitory effect” and the IC50 (commonly the concentration that inhibits the measured activity by half) stood at 0.627 µM.

On to `Clc1nc2ccccc2c2nnc(-c3cccnc3)n12` [Compound 5b, 5-Chloro-3-(3-pyridyl)-1,2,4-triazolo[4,3-c]quinazoline], for which the melting point was greater than 280 °C. Moreover, on PDE7A, the “PDE7A inhibitory activity” value is listed as “high PDE7 inhibitory potencies” and the IC50 was found to be 0.32 µM.

Molecule `OCc1ccc(C=NNc2nc(Cl)nc3ccc(Cl)cc23)o1` [Compound 4e, 2,6-Dichloro-4-[2-(5-hydroxymethyl-2-furylmethylene)hydrazino]quinazoline] gave a melting point of less than 280 °C. Moreover, on PDE7A, the “PDE7A inhibitory activity” value was “among the least effective compounds” and inhibition was half-maximal at 1.97 µM (IC50).

`Clc1ccc2nc(Cl)nc(NN=Cc3cccnc3)c2c1` [Compound 4f, 2,6-Dichloro-4-[2-(3-pyridylmethylene)hydrazino]quinazoline] gave a melting point of 198 to 200 °C. Further, at PDE7A, the “PDE7A inhibitory activity” value is reported as “high PDE7 inhibitory potencies” and the IC50 is 0.343 µM.

The molecule `Clc1nc2ccccc2c2nnc(-c3c[nH]c4ccc(Br)cc34)n12` [Compound 5c, 3-(5-Bromo-3-indolyl)-5-chloro-1,2,4-triazolo[4,3-c]quinazoline] yielded a melting point of 200 to 202 °C. In addition, at PDE7A, the “PDE7A inhibitory activity” value was “good potency; also recorded: good activity” and half-maximal inhibition (IC50) was put at 0.18 µM.

`Cn1c(-c2ccoc2)nc(=O)c2ccccc21` [B]: the IC50 in the series on PDE7 (ref Elfeky et al., 2020) was 90 nM.

`Clc1ccc2nc(Cl)n3c(-c4cccnc4)nnc3c2c1` [Compound 5f, 5,9-Dichloro-3-(3-pyridyl)-1,2,4-triazolo[4,3-c]quinazoline] returned a melting point of 219 to 221 °C. In addition, at PDE7A, the “PDE7A inhibitory activity” value is recorded as “good potency; also recorded: high PDE7 inhibitory potencies; also recorded: highest selective PDE7A inhibitors” and 0.142 µM corresponded to half-maximal inhibition (IC50).

Consider `Clc1nc(NN=Cc2cccnc2)c2ccccc2n1` [Compound 4b, 2-Chloro-4-[2-(3-pyridylmethylene)hydrazino]quinazoline], for which the melting point was less than 280 °C. On PDE7A, the “PDE7A inhibitory activity” value was “good potency; also recorded: high PDE7 inhibitory potencies; also recorded: highest selective PDE7A inhibitors” and the IC50 came out at 0.114 µM.

With `Clc1nc(NN=Cc2ccnc3ccccc23)c2ccccc2n1` [Compound 4d, 2-Chloro-4-[2-(4-quinolinylmethylene)hydrazino]quinazoline], the melting point fell in the range of 205 to 207 °C. Also, on PDE7A, the IC50 came to 0.249 µM.

`Clc1ccc2nc(Cl)n3c(-c4ccnc5ccccc45)nnc3c2c1` [Compound 5h, 5,9-Dichloro-3-(4-quinolinyl)-1,2,4-triazolo[4,3-c]quinazoline] registered a melting point of less than 280 °C. On PDE7A, the “PDE7A inhibitory activity” value is reported as “very low PDE7 inhibitory effect” and the IC50 came out at 1.8 µM.

`OCc1ccc(-c2nnc3c4ccccc4nc(Cl)n23)o1` [Compound 5a, 5-Chloro-3-(5-hydroxymethyl-2-furyl)-1,2,4-triazolo[4,3-c]quinazoline] returned a melting point greater than 280 °C. The IC50 at PDE7A is 0.251 µM.

For the molecule `OCc1ccc(C=NNc2nc(Cl)nc3ccccc23)o1` [Compound 4a, 2-Chloro-4-[2-(5-hydroxymethyl-2-furylmethylene)hydrazino]quinazoline], the melting point is greater than 280 °C. For the same molecule, on PDE7A, the “PDE7A inhibitory activity” value is given as “among the least effective compounds” and the IC50 came out at 0.653 µM.

On to `Cc1ccc([N+](=O)[O-])cc1S(=O)(=O)N(C)C` [BRL50481, reference compound], for which the IC50 on PDE7A is 0.034 µM.

`CC(C)c1nc(SCc2ccc(-c3ccc(C(=O)O)cc3)cc2)c2ccccc2n1` [D]: in the series on PDE7 (ref Sánchez et al., 2013), the IC50 was 930 nM.

For `Clc1ccc2nc(Cl)nc(NN=Cc3c[nH]c4ccc(Br)cc34)c2c1` [Compound 4g, 4-[2-(5-bromo-1H-3-indolylmethylene)hydrazino]-2,6-dichloroquinazoline], the melting point is less than 280 °C. Further, on PDE7A, the “PDE7A inhibitory activity” value is “good potency; also recorded: good activity” and the midpoint of inhibition, the IC50, lay at 0.15 µM.

Regarding `O=c1[nH]c(=S)[nH]c2cc(F)c(F)cc12` [A], the IC50 with PDE7 (ref Elfeky et al., 2020) was 70 nM.

`Clc1nc(NN=Cc2c[nH]c3ccc(Br)cc23)c2ccccc2n1` [Compound 4c, 4-[2-(5-bromo-1H-3-indolylmethylene)hydrazino]-2-chloroquinazoline] registered a melting point of 238 to 240 °C. On PDE7A, this molecule showed an IC50 of 0.478 µM.

For the molecule `CC(C)c1nc(SCc2ccc(-c3ccccc3-c3nnn[nH]3)cc2)c2ccccc2n1` [C], the IC50 with PDE7 (ref Sánchez et al., 2013) is 770 nM.
